ChEMBL document CHEMBL5724914, “Linking interpersonal differences in gut microbiota composition and drug biotransformation activity” (2024)

Conditions: human gut metagenome, 24 h, 2 µM
Further: call rule not given here.

| Structure (SMILES) | Bacterial Biotransformation |
| --- | --- |
| Cc1ccc(S(=O)(=O)NC(=O)NN2CC3CCCC3C2)cc1 (stereo not given) [GLICLAZIDE] | Compound metabolized |
| CCC(=O)NCC[C@@H]1CCc2ccc3c(c21)CCO3 [RAMELTEON] | Compound metabolized |
| COc1ccc2c3c1O[C@H]1C[C@@H](O)C=C[C@@]31CCN(C)C2 [GALANTAMINE] | Compound NOT metabolized |
| CCCc1nc2c(C)cc(-c3nc4ccccc4n3C)cc2n1Cc1ccc(-c2ccccc2C(=O)O)cc1 | Compound metabolized |
| CCN(CC)CCOC(=O)C(Cc1cccc2ccccc12)CC1CCCO1.O=C(O)C(=O)O (stereo not given) [NAFRONYL OXALATE] | Compound metabolized |
| CCN(CC)C(C)CN1c2ccccc2Sc2ccccc21 (stereo not given) [ETHOPROPAZINE] | Compound metabolized |
| CCN(CC)CC#CCOC(=O)C(O)(c1ccccc1)C1CCCCC1.Cl (stereo not given) [OXYBUTYNIN CHLORIDE] | Compound metabolized |
| Nc1c2c(nc3ccccc13)CCCC2 [TACRINE] | Compound metabolized |
| CC(Oc1c(Cl)cccc1Cl)C1=NCCN1 (stereo not given) [LOFEXIDINE] | Compound NOT metabolized |
| O=c1[nH]c2ccccc2n1C1CCN(CCCC(c2ccc(F)cc2)c2ccc(F)cc2)CC1 [PIMOZIDE] | Compound metabolized |

Conditions: human gut metagenome, 24 h, 2 µM
Remark: another data set of the same source

| Structure (SMILES) | Bacterial Biotransformation |
| --- | --- |
| Cc1ccc(S(=O)(=O)NC(=O)NN2CC3CCCC3C2)cc1 (stereo not given) [GLICLAZIDE] | Compound metabolized |
| CCC(=O)NCC[C@@H]1CCc2ccc3c(c21)CCO3 [RAMELTEON] | Compound metabolized |
| COc1ccc2c3c1O[C@H]1C[C@@H](O)C=C[C@@]31CCN(C)C2 [GALANTAMINE] | Compound NOT metabolized |
| CCCc1nc2c(C)cc(-c3nc4ccccc4n3C)cc2n1Cc1ccc(-c2ccccc2C(=O)O)cc1 | Compound metabolized |
| CCN(CC)CCOC(=O)C(Cc1cccc2ccccc12)CC1CCCO1.O=C(O)C(=O)O (stereo not given) [NAFRONYL OXALATE] | Compound metabolized |
| CCN(CC)C(C)CN1c2ccccc2Sc2ccccc21 (stereo not given) [ETHOPROPAZINE] | Compound metabolized |
| CCN(CC)CC#CCOC(=O)C(O)(c1ccccc1)C1CCCCC1.Cl (stereo not given) [OXYBUTYNIN CHLORIDE] | Compound metabolized |
| Nc1c2c(nc3ccccc13)CCCC2 [TACRINE] | Compound metabolized |
| CC(Oc1c(Cl)cccc1Cl)C1=NCCN1 (stereo not given) [LOFEXIDINE] | Compound metabolized |
| O=c1[nH]c2ccccc2n1C1CCN(CCCC(c2ccc(F)cc2)c2ccc(F)cc2)CC1 [PIMOZIDE] | Compound metabolized |

Conditions: human gut metagenome, 24 h, 2 µM
Remark: another data set of the same source

| Structure (SMILES) | Bacterial Biotransformation |
| --- | --- |
| Cc1ccc(S(=O)(=O)NC(=O)NN2CC3CCCC3C2)cc1 (stereo not given) [GLICLAZIDE] | Compound metabolized |
| CCC(=O)NCC[C@@H]1CCc2ccc3c(c21)CCO3 [RAMELTEON] | Compound metabolized |
| COc1ccc2c3c1O[C@H]1C[C@@H](O)C=C[C@@]31CCN(C)C2 [GALANTAMINE] | Compound NOT metabolized |
| CCCc1nc2c(C)cc(-c3nc4ccccc4n3C)cc2n1Cc1ccc(-c2ccccc2C(=O)O)cc1 | Compound metabolized |
| CCN(CC)CCOC(=O)C(Cc1cccc2ccccc12)CC1CCCO1.O=C(O)C(=O)O (stereo not given) [NAFRONYL OXALATE] | Compound metabolized |
| CCN(CC)C(C)CN1c2ccccc2Sc2ccccc21 (stereo not given) [ETHOPROPAZINE] | Compound metabolized |
| CCN(CC)CC#CCOC(=O)C(O)(c1ccccc1)C1CCCCC1.Cl (stereo not given) [OXYBUTYNIN CHLORIDE] | Compound metabolized |
| Nc1c2c(nc3ccccc13)CCCC2 [TACRINE] | Compound NOT metabolized |
| CC(Oc1c(Cl)cccc1Cl)C1=NCCN1 (stereo not given) [LOFEXIDINE] | Compound NOT metabolized |
| O=c1[nH]c2ccccc2n1C1CCN(CCCC(c2ccc(F)cc2)c2ccc(F)cc2)CC1 [PIMOZIDE] | Compound NOT metabolized |

Assay: (§1) The drug is tested on WLS-069 corresponding to human gut metagenome with ENA study accession number: PRJEB37062 and ENA sample accession number: ERS12561748 for biotransformation under anaerobic condition. The drug concentrations were measured over 9 timepoints collected between 0 and 24 hours of incubation by liquid-chromatography-coupled mass spectrometry (LC–MS)
Conditions: 2 µM

| Structure (SMILES) | Bacterial Biotransformation |
| --- | --- |
| Cc1ccc(S(=O)(=O)NC(=O)NN2CC3CCCC3C2)cc1 (stereo not given) [GLICLAZIDE] | Compound metabolized |
| CCC(=O)NCC[C@@H]1CCc2ccc3c(c21)CCO3 [RAMELTEON] | Compound metabolized |
| COc1ccc2c3c1O[C@H]1C[C@@H](O)C=C[C@@]31CCN(C)C2 [GALANTAMINE] | Compound NOT metabolized |
| CCCc1nc2c(C)cc(-c3nc4ccccc4n3C)cc2n1Cc1ccc(-c2ccccc2C(=O)O)cc1 | Compound metabolized |
| CCN(CC)CCOC(=O)C(Cc1cccc2ccccc12)CC1CCCO1.O=C(O)C(=O)O (stereo not given) [NAFRONYL OXALATE] | Compound metabolized |
| CCN(CC)C(C)CN1c2ccccc2Sc2ccccc21 (stereo not given) [ETHOPROPAZINE] | Compound metabolized |
| CCN(CC)CC#CCOC(=O)C(O)(c1ccccc1)C1CCCCC1.Cl (stereo not given) [OXYBUTYNIN CHLORIDE] | Compound metabolized |
| Nc1c2c(nc3ccccc13)CCCC2 [TACRINE] | Compound metabolized |
| CC(Oc1c(Cl)cccc1Cl)C1=NCCN1 (stereo not given) [LOFEXIDINE] | Compound NOT metabolized |
| O=c1[nH]c2ccccc2n1C1CCN(CCCC(c2ccc(F)cc2)c2ccc(F)cc2)CC1 [PIMOZIDE] | Compound metabolized |

Assay: as §1, with “WLS-006” for “WLS-069”, “ERS12561741” for “ERS12561748”
Conditions: 2 µM

| Structure (SMILES) | Bacterial Biotransformation |
| --- | --- |
| Cc1ccc(S(=O)(=O)NC(=O)NN2CC3CCCC3C2)cc1 (stereo not given) [GLICLAZIDE] | Compound metabolized |
| CCC(=O)NCC[C@@H]1CCc2ccc3c(c21)CCO3 [RAMELTEON] | Compound metabolized |
| COc1ccc2c3c1O[C@H]1C[C@@H](O)C=C[C@@]31CCN(C)C2 [GALANTAMINE] | Compound NOT metabolized |
| CCCc1nc2c(C)cc(-c3nc4ccccc4n3C)cc2n1Cc1ccc(-c2ccccc2C(=O)O)cc1 | Compound metabolized |
| CCN(CC)CCOC(=O)C(Cc1cccc2ccccc12)CC1CCCO1.O=C(O)C(=O)O (stereo not given) [NAFRONYL OXALATE] | Compound metabolized |
| CCN(CC)C(C)CN1c2ccccc2Sc2ccccc21 (stereo not given) [ETHOPROPAZINE] | Compound metabolized |
| CCN(CC)CC#CCOC(=O)C(O)(c1ccccc1)C1CCCCC1.Cl (stereo not given) [OXYBUTYNIN CHLORIDE] | Compound metabolized |
| Nc1c2c(nc3ccccc13)CCCC2 [TACRINE] | Compound NOT metabolized |
| CC(Oc1c(Cl)cccc1Cl)C1=NCCN1 (stereo not given) [LOFEXIDINE] | Compound NOT metabolized |
| O=c1[nH]c2ccccc2n1C1CCN(CCCC(c2ccc(F)cc2)c2ccc(F)cc2)CC1 [PIMOZIDE] | Compound metabolized |

Assay: as §1, with “Z-009” for “WLS-069”, “pig” for “human”, “ERS12561809” for “ERS12561748”
Conditions: 2 µM

| Structure (SMILES) | Bacterial Biotransformation |
| --- | --- |
| Cc1ccc(S(=O)(=O)NC(=O)NN2CC3CCCC3C2)cc1 (stereo not given) [GLICLAZIDE] | Compound metabolized |
| CCC(=O)NCC[C@@H]1CCc2ccc3c(c21)CCO3 [RAMELTEON] | Compound metabolized |
| COc1ccc2c3c1O[C@H]1C[C@@H](O)C=C[C@@]31CCN(C)C2 [GALANTAMINE] | Compound NOT metabolized |
| CCCc1nc2c(C)cc(-c3nc4ccccc4n3C)cc2n1Cc1ccc(-c2ccccc2C(=O)O)cc1 | Compound metabolized |
| CCN(CC)CCOC(=O)C(Cc1cccc2ccccc12)CC1CCCO1.O=C(O)C(=O)O (stereo not given) [NAFRONYL OXALATE] | Compound metabolized |
| CCN(CC)C(C)CN1c2ccccc2Sc2ccccc21 (stereo not given) [ETHOPROPAZINE] | Compound metabolized |
| CCN(CC)CC#CCOC(=O)C(O)(c1ccccc1)C1CCCCC1.Cl (stereo not given) [OXYBUTYNIN CHLORIDE] | Compound metabolized |
| Nc1c2c(nc3ccccc13)CCCC2 [TACRINE] | Compound NOT metabolized |
| CC(Oc1c(Cl)cccc1Cl)C1=NCCN1 (stereo not given) [LOFEXIDINE] | Compound NOT metabolized |
| O=c1[nH]c2ccccc2n1C1CCN(CCCC(c2ccc(F)cc2)c2ccc(F)cc2)CC1 [PIMOZIDE] | Compound metabolized |

Conditions: human gut metagenome, 24 h, 2 µM
Remark: another data set of the same source

| Structure (SMILES) | Bacterial Biotransformation |
| --- | --- |
| Cc1ccc(S(=O)(=O)NC(=O)NN2CC3CCCC3C2)cc1 (stereo not given) [GLICLAZIDE] | Compound metabolized |
| CCC(=O)NCC[C@@H]1CCc2ccc3c(c21)CCO3 [RAMELTEON] | Compound NOT metabolized |
| COc1ccc2c3c1O[C@H]1C[C@@H](O)C=C[C@@]31CCN(C)C2 [GALANTAMINE] | Compound NOT metabolized |
| CCCc1nc2c(C)cc(-c3nc4ccccc4n3C)cc2n1Cc1ccc(-c2ccccc2C(=O)O)cc1 | Compound metabolized |
| CCN(CC)CCOC(=O)C(Cc1cccc2ccccc12)CC1CCCO1.O=C(O)C(=O)O (stereo not given) [NAFRONYL OXALATE] | Compound metabolized |
| CCN(CC)C(C)CN1c2ccccc2Sc2ccccc21 (stereo not given) [ETHOPROPAZINE] | Compound metabolized |
| CCN(CC)CC#CCOC(=O)C(O)(c1ccccc1)C1CCCCC1.Cl (stereo not given) [OXYBUTYNIN CHLORIDE] | Compound metabolized |
| Nc1c2c(nc3ccccc13)CCCC2 [TACRINE] | Compound NOT metabolized |
| CC(Oc1c(Cl)cccc1Cl)C1=NCCN1 (stereo not given) [LOFEXIDINE] | Compound NOT metabolized |
| O=c1[nH]c2ccccc2n1C1CCN(CCCC(c2ccc(F)cc2)c2ccc(F)cc2)CC1 [PIMOZIDE] | Compound metabolized |

Conditions: human gut metagenome, 24 h, 2 µM
Remark: another data set of the same source

| Structure (SMILES) | Bacterial Biotransformation |
| --- | --- |
| Cc1ccc(S(=O)(=O)NC(=O)NN2CC3CCCC3C2)cc1 (stereo not given) [GLICLAZIDE] | Compound metabolized |
| CCC(=O)NCC[C@@H]1CCc2ccc3c(c21)CCO3 [RAMELTEON] | Compound metabolized |
| COc1ccc2c3c1O[C@H]1C[C@@H](O)C=C[C@@]31CCN(C)C2 [GALANTAMINE] | Compound metabolized |
| CCCc1nc2c(C)cc(-c3nc4ccccc4n3C)cc2n1Cc1ccc(-c2ccccc2C(=O)O)cc1 | Compound metabolized |
| CCN(CC)CCOC(=O)C(Cc1cccc2ccccc12)CC1CCCO1.O=C(O)C(=O)O (stereo not given) [NAFRONYL OXALATE] | Compound metabolized |
| CCN(CC)C(C)CN1c2ccccc2Sc2ccccc21 (stereo not given) [ETHOPROPAZINE] | Compound metabolized |
| CCN(CC)CC#CCOC(=O)C(O)(c1ccccc1)C1CCCCC1.Cl (stereo not given) [OXYBUTYNIN CHLORIDE] | Compound metabolized |
| Nc1c2c(nc3ccccc13)CCCC2 [TACRINE] | Compound metabolized |
| CC(Oc1c(Cl)cccc1Cl)C1=NCCN1 (stereo not given) [LOFEXIDINE] | Compound metabolized |
| O=c1[nH]c2ccccc2n1C1CCN(CCCC(c2ccc(F)cc2)c2ccc(F)cc2)CC1 [PIMOZIDE] | Compound metabolized |

Assay: as §1, with “WLS-077” for “WLS-069”, “ERS12561750” for “ERS12561748”
Conditions: 2 µM

| Structure (SMILES) | Bacterial Biotransformation |
| --- | --- |
| Cc1ccc(S(=O)(=O)NC(=O)NN2CC3CCCC3C2)cc1 (stereo not given) [GLICLAZIDE] | Compound metabolized |
| CCC(=O)NCC[C@@H]1CCc2ccc3c(c21)CCO3 [RAMELTEON] | Compound metabolized |
| COc1ccc2c3c1O[C@H]1C[C@@H](O)C=C[C@@]31CCN(C)C2 [GALANTAMINE] | Compound NOT metabolized |
| CCCc1nc2c(C)cc(-c3nc4ccccc4n3C)cc2n1Cc1ccc(-c2ccccc2C(=O)O)cc1 | Compound metabolized |
| CCN(CC)CCOC(=O)C(Cc1cccc2ccccc12)CC1CCCO1.O=C(O)C(=O)O (stereo not given) [NAFRONYL OXALATE] | Compound metabolized |
| CCN(CC)C(C)CN1c2ccccc2Sc2ccccc21 (stereo not given) [ETHOPROPAZINE] | Compound metabolized |
| CCN(CC)CC#CCOC(=O)C(O)(c1ccccc1)C1CCCCC1.Cl (stereo not given) [OXYBUTYNIN CHLORIDE] | Compound metabolized |
| Nc1c2c(nc3ccccc13)CCCC2 [TACRINE] | Compound metabolized |
| CC(Oc1c(Cl)cccc1Cl)C1=NCCN1 (stereo not given) [LOFEXIDINE] | Compound NOT metabolized |
| O=c1[nH]c2ccccc2n1C1CCN(CCCC(c2ccc(F)cc2)c2ccc(F)cc2)CC1 [PIMOZIDE] | Compound NOT metabolized |
